What was measured:
normal adult mice = assay: Glucocorticoid-induced reduction of epidermal thickness in normal adult mice, topical application over the back pelage; type: in vivo; details: 7 days; for epidermal thickness, MR antagonist added to clobetasol: spironolactone 10 mM added to clobetasol 0.1 mM solution, FIG. 2
Description: In another set of experiments, we used normal adult mice that were treated by application of glucocorticoid (clobetasol, as 0.1 mM ethanol solution) alone or together with spironolactone (10 mM) over the back pelage, during 7 days.

human skin explants = assay: Organotypic culture of human skin explants, epidermal thickness; type: cell-based; details: clobetasol 100 nM plus MR blocker 10 micromolar, 6 days, air/liquid interface; FIG. 3
Description: Human skin explants grown as organotypic culture represent a valuable model to study cx vivo epidermal homeostasis. Skin punches (3 mm) were made (accupunch) from human skin (discarded during mammary gland surgery) and placed in organotypic culture as explants (air/liquid interface) in 2 ml DMEM and 10% decomplemented charcoal-stripped foetal bovine scrum to remove steroids for 6 days, in the presence of clobetasol (100 nM) alone or together with spironolactone or canrenoate (potassium canrenoate) (10 micromolar) or solvent alone (0.1% ethanol).

[1] = test system: mice with MR overexpression in keratinocytes; assay: MR antagonist given during pregnancy to mice with MR overexpression in keratinocytes (K5-MR); type: in vivo; details: pregnant mice received the MR antagonist all along pregnancy; two litters
From the text: To test whether the reduced epidermal thickness is related to excessive MR activation in this mouse model, we administered an antagonist of the mineralocorticoid receptor during pregnancy of the mice. […] The question arises to know which MR ligand activates the MR in this condition. Because of the absence of HSD2 (the enzyme that inactivates glucocorticoids) in the epidermis (Kenouch S, Lombes M, Delahaye F, Eugene E, Bonvalet J P, Farman N. Human skin as target for aldosterone: coexpression of mineralocorticoid receptors and 11 beta-hydroxysteroid dehydrogenase. J Clin Endocrinol Metab. 1994: 79(5): 1334-41), it is likely that MR bound ligand is endogenous corticosterone, rather than aldosterone.

| Structure (SMILES) | epidermal thickness, glucocorticoid alone (normal adult mice; clobetasol 0.1 mM ethanol solution, topical over back pelage) | epidermal thickness, MR antagonist added to clobetasol (normal adult mice; topical) | epidermal thickness, MR antagonist added to clobetasol (normal adult mice; topical, listed as Spironolactone) | epidermal thickness, MR antagonist alone (normal adult mice; spironolactone alone, topical) | thickness of the epidermis, MR blocker together with clobetasol (human skin explants) | epidermal thickness of double-transgenic pups (histology) [1] | skin appearance of double-transgenic pups [1] |
| --- | --- | --- | --- | --- | --- | --- | --- |
| C[C@H]1C[C@H]2[C@@H]3CCC4=CC(=O)C=C[C@]4(C)[C@@]3(F)[C@@H](O)C[C@]2(C)[C@@]1(O)C(=O)CCl [Clobetasol, clobetasol] | drastic reduction of epidermal thickness |  |  |  |  |  |  |
| CC(=O)S[C@@H]1CC2=CC(=O)CC[C@]2(C)[C@H]2CC[C@@]3(C)[C@@H](CC[C@@]34CCC(=O)O4)[C@H]12 [spironolactone, 17-hydroxy-7α-mercapto-3-oxo-17α-pregn-4-ene-21-carboxylic acid γ-lactone acetate] |  | reduction in epidermal thickness induced in mice by the glucocorticoid clobetasol was limited | significantly increased epidermal thickness | had no effect | increase the thickness of the epidermis |  |  |
| C[C@]12CCC(=O)C=C1C=C[C@@H]1[C@@H]2CC[C@@]2(C)[C@H]1CC[C@@]2(O)CCC(=O)O [Canrenoate, potassium canrenoate] |  |  |  |  | increase the thickness of the epidermis | histologically normal epidermal thickness | normal skin appearance |
